In patent US6737383B1, “Herbicidal oxadiazolidines” (priority 1999, dated 2004):

Columns and labels:
[1] = system: bedstraw; assay: Test B pre/postemergence bedstraw; format: in vivo, Galium aparine
In short: (§1)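 Response is a visual 0-to-10 score relative to untreated plants, where 0 means no effect and 10 means complete control, taken twelve to sixteen days after application. Treatments went onto soil at planting and onto foliage of 1- to 4-leaf plants, using a surfactant-containing non-phytotoxic solvent.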

[2] = system: blackgrass; assay: Test B pre/postemergence blackgrass; format: in vivo, Alopecurus myosuroides
In short: as §1

[3] = system: surinam grass; assay: Test B pre/postemergence surinam grass; format: in vivo, Brachiaria decumbens
In short: as §1

[4] = system: cocklebur; assay: Test B pre/postemergence cocklebur; format: in vivo, Xanthium strumarium
In short: as §1

[5] = system: corn; assay: Test B pre/postemergence corn; format: in vivo, Zea mays
In short: as §1

[6] = system: crabgrass; assay: Test B pre/postemergence crabgrass; format: in vivo, Digitaria sanguinalis
In short: as §1

[7] = system: giant foxtail; assay: Test B pre/postemergence giant foxtail; format: in vivo, Setaria faberii
In short: as §1

[8] = system: morningglory; assay: Test B pre/postemergence morningglory; format: in vivo, Ipomoea hederacea
In short: as §1

[9] = system: pigweed; assay: Test B pre/postemergence pigweed; format: in vivo, Amaranthus retroflexus; conditions: for Plant response rating, Redroot pigweed: Postemergence
In short: as §1

[10] = system: rape; assay: Test B pre/postemergence rape; format: in vivo, Brassica napus
In short: as §1

[11] = system: soybean; assay: Test B pre/postemergence soybean; format: in vivo, Glycine max; conditions: for Plant response rating, Soybean: Postemergence
In short: as §1

[12] = system: sugar beet; assay: Test B pre/postemergence sugar beet; format: in vivo, Beta vulgaris; conditions: for Plant response rating, Sugarbeets: Postemergence
In short: as §1

[13] = system: velvetleaf; assay: Test B pre/postemergence velvetleaf; format: in vivo, Abutilon theophrasti; conditions: for Plant response rating, Velvetleaf: Postemergence
In short: as §1

[14] = system: wheat; assay: Test B pre/postemergence wheat; format: in vivo, Triticum aestivum; conditions: for Plant response rating, Wheat: Postemergence
In short: as §1

[15] = system: wild oat; assay: Test B pre/postemergence wild oat; format: in vivo, Avena fatua; conditions: for Plant response rating, Wild oats: Postemergence
In short: as §1

[16] = system: purple nutsedge; assay: Test B pre/postemergence purple nutsedge; format: in vivo, Cyperus rotundus
In short: as §1

[17] = system: rice; assay: Test B flood test rice; format: in vivo, Oryza sativa
In short: (§2)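 Plants were grown to the 2-leaf stage before treatment with test chemical, then held in a greenhouse for twelve to sixteen days. Injury was visually rated against untreated controls on a 0–10 scale, where 0 is no effect and 10 is complete control.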

[18] = system: smallflower flatsedge; assay: Test B flood test smallflower flatsedge; format: in vivo, Cyperus difformis
In short: as §2

[19] = system: duck salad; assay: Test B flood test duck salad; format: in vivo, Heteranthera limosa
In short: as §2

[20] = system: bamyardgrass; assay: Test B flood test barnyardgrass; format: in vivo, Echinochloa crus-galli
In short: as §2

[21] = Postemergence, Rate 62 g/ha, scale of 0 to 10, 0 is no effect, 10 is complete control
[22] = Postemergence, Rate 125 g/ha, scale 0 to 10, 0 is no effect, 10 is complete control
[23] = Preemergence, Rate 62 g/ha, scale 0 to 10 (0 no effect, 10 complete control)
[24] = Preemergence, Rate 500 g/ha, scale of 0 to 10 where 0 is no effect and 10 is complete control
[25] = Postemergence, Rate 500 g/ha, scale of 0 to 10 where 0 is no effect and 10 is complete control
[26] = Preemergence, Rate 125 g/ha, scale 0 to 10, 0 is no effect, 10 is complete control
[27] = Rate 250 g/ha, Postemergence, scale of 0 to 10 where 0 is no effect and 10 is complete control
[28] = Rate 500 g/ha, scale of 0 to 10 where 0 is no effect and 10 is complete control
[29] = Rate 250 g/ha, scale of 0 to 10 where 0 is no effect and 10 is complete control
[30] = Rate 62 g/ha, flood test species, Pre-emergence, visual evaluation after twelve to sixteen days
[31] = Rate 125 g/ha, under heading Pre-emergence, flood test species, visual evaluation after twelve to sixteen days
[32] = Rate 250 g/ha, Pre-emergence (flood test species), scale 0 to 10, 0 is no effect, 10 is complete control
[33] = Rate 500 g/ha, Pre-emergence section of Table B, 0 to 10 scale (0 no effect, 10 complete control)

For CC(C)N(C(=O)n1oc(=O)n(CC2CC2)c1=O)c1ccccc1 [Compound 568], the “Bedstraw plant response rating” value [1, 21] was 0, the “Bedstraw plant response rating” value [1, 22] was 2 and the “Bedstraw plant response rating” value [1, 23] was 0. The “Bedstraw plant response rating (0 to 10 scale)” value ([1]; Preemergence, Rate 250 g/ha) was 3, the “Bedstraw plant response rating” value [1, 24] was 8 and the “Blackgrass plant response rating” value [2, 21] was 8. For the same compound, the “Blackgrass plant response rating” value [2, 22] was 8, the “Plant response rating, Blackgrass” value [2, 25] was 9 and the “Blackgrass plant response rating” value [2, 23] was 5. The “Blackgrass plant response rating” value [2, 26] was 8, the “Blackgrass plant response rating (0 to 10 scale)” value ([2]; Preemergence, Rate 250 g/ha) was 8 and the “Blackgrass plant response rating” value [2, 24] was 9. For the same compound, the “Plant response rating, Blackgrass” value [2, 27] was 8, the “B. signalgrass plant response rating” value [3, 21] was 1 and the “B. signalgrass plant response rating” value [3, 22] was 4. The “Plant response rating, B. signalgrass” value [3, 25] was 7, the “B. signalgrass plant response rating” value [3, 23] was 3 and the “B. signalgrass plant response rating” value [3, 26] was 6. The “B. signalgrass plant response rating (0 to 10 scale, 0 is no effect, 10 is complete control)” value ([3]; Preemergence, Rate 250 g/ha) was 8, the “B. signalgrass plant response rating” value [3, 24] was 9 and the “Plant response rating, B. signalgrass” value [3, 27] was 7. For the same compound, the “Cocklebur plant response rating” value [4, 21] was 1, the “Cocklebur plant response rating” value [4, 22] was 1 and the “Plant response rating, Cocklebur” value [4, 25] was 6. For the same compound, the “Cocklebur plant response rating” value [4, 23] was 0, the “Cocklebur plant response rating” value [4, 26] was 0 and the “Cocklebur plant response rating (0 to 10 scale)” value ([4]; Preemergence, Rate 250 g/ha) was 0. The “Cocklebur plant response rating” value [4, 24] was 2, the “Plant response rating, Cocklebur” value [4, 27] was 1 and the “Corn plant response rating” value [5, 21] was 0. The “Corn plant response rating” value [5, 22] was 0, the “Plant response rating, Corn” value [5, 25] was 5 and the “Corn plant response rating” value [5, 23] was 0. For the same compound, the “Corn plant response rating” value [5, 26] was 4, the “Corn plant response rating (0 to 10 scale)” value ([5]; Preemergence, Rate 250 g/ha) was 5 and the “Corn plant response rating” value [5, 24] was 9. The “Plant response rating, Corn” value [5, 27] was 4, the “Crabgrass plant response rating” value [6, 21] was 8 and the “Crabgrass plant response rating” value [6, 22] was 8. The “Plant response rating, Crabgrass” value [6, 25] was 9, the “Crabgrass plant response rating” value [6, 23] was 7 and the “Crabgrass plant response rating” value [6, 26] was 7. For the same compound, the “Crabgrass plant response rating (0 to 10 scale)” value ([6]; Preemergence, Rate 250 g/ha) was 9, the “Crabgrass plant response rating” value [6, 24] was 10 and the “Plant response rating, Crabgrass” value [6, 27] was 9. For the same compound, the “Giant foxtail plant response rating” value [7, 21] was 7, the “Giant foxtail plant response rating” value [7, 22] was 9 and the “Plant response rating, Giant foxtail” value [7, 25] was 9. For the same compound, the “Giant foxtail plant response rating” value [7, 23] was 9, the “Giant foxtail plant response rating” value [7, 26] was 10 and the “Giant foxtail plant response rating (0 to 10 scale)” value ([7]; Preemergence, Rate 250 g/ha) was 10. The “Giant foxtail plant response rating” value [7, 24] was 10, the “Plant response rating, Giant foxtail” value [7, 27] was 9 and the “Morningglory plant response rating” value [8, 21] was 7. For the same compound, the “Morningglory plant response rating” value [8, 22] was 10, the “Plant response rating, Morningglory” value [8, 25] was 10 and the “Morningglory plant response rating” value [8, 23] was 0. The “Morningglory plant response rating” value [8, 26] was 0, the “Morningglory plant response rating (0 to 10 scale)” value ([8]; Preemergence, Rate 250 g/ha) was 2 and the “Morningglory plant response rating” value [8, 24] was 6. For the same compound, the “Plant response rating, Morningglory” value [8, 27] was 10, the “Plant response rating, Redroot pigweed” value [9, 28] was 2 and the “Redroot pigweed plant response rating” value [9, 23] was 2. The “Redroot pigweed plant response rating” value [9, 26] was 4, the “Redroot pigweed plant response rating (0 to 10 scale)” value ([9]; Preemergence, Rate 250 g/ha) was 4 and the “Redroot pigweed plant response rating” value [9, 24] was 8. The “Plant response rating, Redroot pigweed” value [9, 29] was 0, the “Rape plant response rating” value [10, 21] was 0 and the “Rape plant response rating” value [10, 22] was 0. For the same compound, the “Plant response rating, Rape” value [10, 25] was 3, the “Rape plant response rating” value [10, 23] was 0 and the “Rape plant response rating” value [10, 26] was 0. The “Rape plant response rating (0 to 10 scale)” value ([10]; Preemergence, Rate 250 g/ha) was 5, the “Rape plant response rating” value [10, 24] was 7 and the “Plant response rating, Rape” value [10, 27] was 2. The “Plant response rating, Soybean” value [11, 28] was 6, the “Soybean plant response rating” value [11, 23] was 0 and the “Soybean plant response rating” value [11, 26] was 0. For the same compound, the “Soybean plant response rating (0 to 10 scale)” value ([11]; Preemergence, Rate 250 g/ha) was 3, the “Soybean plant response rating” value [11, 24] was 9 and the “Plant response rating, Soybean” value [11, 29] was 6. The “Plant response rating, Sugarbeets” value [12, 28] was 2, the “Sugarbeets plant response rating” value [12, 23] was 5 and the “Sugarbeets plant response rating” value [12, 26] was 5. For the same compound, the “Sugarbeets plant response rating (0 to 10 scale)” value ([12]; Preemergence, Rate 250 g/ha) was 6, the “Sugarbeets plant response rating” value [12, 24] was 8 and the “Plant response rating, Sugarbeets” value [12, 29] was 1. The “Plant response rating, Velvetleaf” value [13, 28] was 8, the “Velvetleaf plant response rating” value [13, 23] was 5 and the “Velvetleaf plant response rating” value [13, 26] was 6. The “Velvetleaf plant response rating (0 to 10 scale)” value ([13]; Preemergence, Rate 250 g/ha) was 6, the “Velvetleaf plant response rating” value [13, 24] was 7 and the “Plant response rating, Velvetleaf” value [13, 29] was 5. The “Plant response rating, Wheat” value [14, 28] was 5, the “Wheat plant response rating” value [14, 23] was 0 and the “Wheat plant response rating” value [14, 26] was 0. The “Wheat plant response rating (0 to 10 scale)” value ([14]; Preemergence, Rate 250 g/ha) was 0, the “Wheat plant response rating” value [14, 24] was 5 and the “Plant response rating, Wheat” value [14, 29] was 4. The “Plant response rating, Wild oats” value [15, 28] was 6, the “Wild oats plant response rating” value [15, 23] was 5 and the “Wild oats plant response rating” value [15, 26] was 5. For the same compound, the “Wild oats plant response rating (0 to 10 scale)” value ([15]; Preemergence, Rate 250 g/ha) was 6, the “Wild oats plant response rating” value [15, 24] was 8 and the “Plant response rating, Wild oats” value [15, 29] was 2. For the same compound, the “Nutsedge plant response rating” value [16, 21] was 0, the “Nutsedge plant response rating” value [16, 22] was 0 and the “Plant response rating, Nutsedge” value [16, 25] was 0. For the same compound, the “Nutsedge plant response rating” value [16, 23] was 0, the “Nutsedge plant response rating” value [16, 26] was 0 and the “Nutsedge plant response rating (0 to 10 scale)” value ([16]; Preemergence, Rate 250 g/ha) was 0. For the same compound, the “Nutsedge plant response rating” value [16, 24] was 3, the “Plant response rating, Nutsedge” value [16, 27] was 0 and the “Plant response rating, Rice (0 to 10 scale, 0 is no effect, 10 is complete control)” value [17, 30] was 1. The “Rice plant response rating (0 to 10 scale, 0 is no effect, 10 is complete control)” value [17, 31] was 1, the “Rice plant response rating” value [17, 32] was 0 and the “Rice plant response rating” value [17, 33] was 0. For the same compound, the “Plant response rating, S. Flatsedge (0 to 10 scale, 0 is no effect, 10 is complete control)” value [18, 30] was 0, the “S. Flatsedge plant response rating (0 to 10 scale, 0 is no effect, 10 is complete control)” value [18, 31] was 0 and the “S. Flatsedge plant response rating” value [18, 32] was 0. The “S. Flatsedge plant response rating” value [18, 33] was 4, the “Plant response rating, Ducksalad (0 to 10 scale, 0 is no effect, 10 is complete control)” value [19, 30] was 0 and the “Ducksalad plant response rating (0 to 10 scale, 0 is no effect, 10 is complete control)” value [19, 31] was 0. The “Ducksalad plant response rating” value [19, 32] was 0, the “Ducksalad plant response rating” value [19, 33] was 2 and the “Plant response rating, Barnyardgrass (0 to 10 scale, 0 is no effect, 10 is complete control)” value [20, 30] was 0. For the same compound, the “Barnyardgrass plant response rating (0 to 10 scale, 0 is no effect, 10 is complete control)” value [20, 31] was 0, the “Barnyardgrass plant response rating” value [20, 32] was 3 and the “Barnyardgrass plant response rating” value [20, 33] was 6.
